Test results as given in PubChem BioAssay AID1259411 (Chemical Carcinogenesis Research Information System (CCRIS), 2018).
The source made the active and inactive calls. The rule behind the calls is not given here.

Test system: rodent carcinogenicity bioassays, tumor incidence
Assay: CCRIS carcinogenicity studies
Conditions: Dose: 0, Dose: 0
Procedure, shortened: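 NCI-built, expert-reviewed records of carcinogenicity and related test outcomes (mutagenicity, tumor promotion/inhibition) compiled from published and report sources, historical span 1985-2011, not updated.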

`CCOP(=S)(OCC)Oc1ccc([N+](=O)[O-])cc1` was tested, and the carcinogen call (Species: MOUSE, Strain/Sex: B6C3F1/FEMALE, Route: ORAL, 80, 160 PPM IN DIET, 80, 160 PPM IN DIET) was “inactive; negative”, the carcinogen call (Species: MOUSE, Strain/Sex: B6C3F1/MALE, Route: ORAL, 80, 160 PPM IN DIET, 80, 160 PPM IN DIET) was “inactive; negative” and the carcinogen call (Species: RAT, Strain/Sex: OSBORNE-MENDEL/FEMALE, Route: ORAL, 23, 45 PPM IN DIET FOR 80 WK (STUDY DURATION: 112-113 WK), 23, 45 PPM IN DIET FOR 80 WK (STUDY DURATION: 112-113 WK), Tumor Site: Type of Lesion: ADRENAL GLAND: CORTICAL ADENOMA OR CARCINOMA) was “equivocal”. For the same compound, the carcinogen call (Species: RAT, Strain/Sex: OSBORNE-MENDEL/MALE, Route: ORAL, 32, 63 PPM IN DIET FOR 80 WK (STUDY DURATION: 112-113 WK), 32, 63 PPM IN DIET FOR 80 WK (STUDY DURATION: 112-113 WK), Tumor Site: Type of Lesion: ADRENAL GLAND: CORTICAL ADENOMA OR CARCINOMA) was “equivocal”.
For `CCOP(=S)(OCC)SCCSCC`, the carcinogen call (Species: Mouse, Strain/Sex: CD/Female (60/Group with 10 used as replacements), Route: Oral, 1, 4, 16 ppm 98.2% disulfoton in diet for 99 wks, study duration 99 wks, 1, 4, 16 ppm 98.2% disulfoton in diet for 99 wks, study duration 99 wks) was “inactive; negative”, the carcinogen call (Species: Mouse, Strain/Sex: CD/Male (60/Group with 10 used as replacements), Route: Oral, 1, 4, 16 ppm 98.2% disulfoton in diet for 99 wks, study duration 99 wks, 1, 4, 16 ppm 98.2% disulfoton in diet for 99 wks, study duration 99 wks) was “inactive; negative” and the carcinogen call (Species: Rat, Strain/Sex: F344/Female (50/Group), Route: Oral, 1, 4, 16 ppm 97.6% disulfoton in diet for 105 wks, study duration 105 wks, 1, 4, 16 ppm 97.6% disulfoton in diet for 105 wks, study duration 105 wks) was “inactive; negative”. The carcinogen call (Species: Rat, Strain/Sex: F344/Male (50/Group), Route: Oral, 1, 4, 16 ppm 97.6% disulfoton in diet for 105 wks, study duration 105 wks, 1, 4, 16 ppm 97.6% disulfoton in diet for 105 wks, study duration 105 wks) was “inactive; negative”.
For `O[C@H]1C=Cc2cc3ccc4ccccc4c3nc2[C@@H]1O`, the carcinogen call (Species: MOUSE, Strain/Sex: SWISS/FEMALE, Route: INTRAPERITONEAL, 1.05 UMOL GIVEN AS 150 NMOL IN 5 µL DMSO WITHIN 24 HR OF BIRTH, 300 NMOL IN 10 µL DMSO ON D 8 OF LIFE, AND 600 NMOL I, Tumor Site: Type of Lesion: LUNG: ADENOMA) was “active; positive” and the carcinogen call (Species: MOUSE, Strain/Sex: SWISS/MALE, Route: INTRAPERITONEAL, 1.05 UMOL GIVEN AS 150 NMOL IN 5 µL DMSO WITHIN 24 HR OF BIRTH, 300 NMOL IN 10 µL DMSO ON D 8 OF LIFE, AND 600 NMOL I, Tumor Site: Type of Lesion: LUNG: ADENOMA, LIVER: NEOPLASTIC NODULE) was “active; positive”.
For `C[N+](=O)[O-]`, the carcinogen call (Species: GUPPIE, Strain/Sex: FEMALE, Route: AQUARIUM WATER, 10, 30, 70 MG/L FOR 16 MO (STUDY DURATION: 16 MO), 10, 30, 70 MG/L FOR 16 MO (STUDY DURATION: 16 MO)) was “inactive; negative”, the carcinogen call (Species: MEDAKA, Strain/Sex: FEMALE, Route: AQUARIUM WATER, 10, 20, 40 MG/L FOR 13 MO (STUDY DURATION: 13 MO), 10, 20, 40 MG/L FOR 13 MO (STUDY DURATION: 13 MO)) was “inactive; negative” and the carcinogen call (Species: MEDAKA, Strain/Sex: MALE, Route: AQUARIUM WATER, 10, 20, 40 MG/L FOR 13 MO (STUDY DURATION: 13 MO), 10, 20, 40 MG/L FOR 13 MO (STUDY DURATION: 13 MO)) was “inactive; negative”. For the same compound, the carcinogen call (Species: MOUSE, Strain/Sex: B6C3F1/FEMALE, Route: INHALATION, 188, 375, 750 PPM 6 HR/D 5 D/WK FOR 103 WK (STUDY DURATION: 105 WK), 188, 375, 750 PPM 6 HR/D 5 D/WK FOR 103 WK (STUDY DURATION: 105 WK), Tumor Site: Type of Lesion: HARDERIAN GLAND: ADENOMA, LIVER: HEPATOCELLULAR ADENOMA, LUNG: ALVEOLAR/BRONCHIOLAR ADENOMA, ALVEOLAR/BRONCHIOLAR CARCIN, Tumor Site: Type of Lesion: HARDERIAN GLAND: ADENOMA, LIVER: HEPATOCELLULAR ADENOMA, LUNG: ALVEOLAR/BRONCHIOLAR ADENOMA, ALVEOLAR/BRONCHIOLAR CARCIN) was “active; positive”, the carcinogen call (Species: MOUSE, Strain/Sex: B6C3F1/MALE, Route: INHALATION, 188, 375, 750 PPM 6 HR/D 5 D/WK FOR 103 WK (STUDY DURATION: 105 WK), 188, 375, 750 PPM 6 HR/D 5 D/WK FOR 103 WK (STUDY DURATION: 105 WK), Tumor Site: Type of Lesion: HARDERIAN GLAND: CARCINOMA, ADENOMA, LUNG: ALVEOLAR/BRONCHIOLAR CARCINOMA) was “active; positive” and the carcinogen call (Species: RAT, Strain/Sex: F344/FEMALE, Route: INHALATION, 94, 188, 375 PPM 6 HR/D 5 D/WK FOR 103 WK (STUDY DURATION: 104 WK), 94, 188, 375 PPM 6 HR/D 5 D/WK FOR 103 WK (STUDY DURATION: 104 WK), Tumor Site: Type of Lesion: MAMMARY GLAND: FIBROADENOMA, CARCINOMA) was “active; positive”. The carcinogen call (Species: RAT, Strain/Sex: F344/MALE, Route: INHALATION, 94, 188, 375 PPM 6 HR/D 5 D/WK FOR 103 WK (STUDY DURATION: 104 WK), 94, 188, 375 PPM 6 HR/D 5 D/WK FOR 103 WK (STUDY DURATION: 104 WK)) was “inactive; negative”, the carcinogen call (Species: RAT, Strain/Sex: LONG-EVANS/FEMALE, Route: INHALATION, 100, 200 PPM 7 HR/D 5 D/WK FOR 2 YR (STUDY DURATION: 2 YR), 100, 200 PPM 7 HR/D 5 D/WK FOR 2 YR (STUDY DURATION: 2 YR)) was “inactive; negative” and the carcinogen call (Species: RAT, Strain/Sex: LONG-EVANS/MALE, Route: INHALATION, 100, 200 PPM 7 HR/D 5 D/WK FOR 2 YR (STUDY DURATION: 2 YR), 100, 200 PPM 7 HR/D 5 D/WK FOR 2 YR (STUDY DURATION: 2 YR)) was “inactive; negative”.
In the case of `N#CCNC(=O)c1cnccc1C(F)(F)F`, the carcinogen call (Species: Mouse, Strain/Sex: Crl:CD-1(ICR)BR VAF/Plus / Female (60/Group), Route: Oral, 250, 750, 2250 ppm (0; 38; 112; 334 mg/kg/day) in diet for 18 mo, study duration 18 mo, 250, 750, 2250 ppm (0; 38; 112; 334 mg/kg/day) in diet for 18 mo, study duration 18 mo, Tumor Site: Type of Lesion: Lung: alveolar/bronchiolar adenomas and carcinomas) is reported as “active; positive”, the carcinogen call (Species: Mouse, Strain/Sex: Crl:CD-1(ICR)BR VAF/Plus / Male (60/Group), Route: Oral, 250, 750, 2250 ppm (0; 29; 88; 261 mg/kg/day) in diet for 18 mo, study duration 18 mo, 250, 750, 2250 ppm (0; 29; 88; 261 mg/kg/day) in diet for 18 mo, study duration 18 mo, Tumor Site: Type of Lesion: Lung: alveolar/bronchiolar adenomas and carcinomas) is reported as “active; positive” and the carcinogen call (Species: Rat, Strain/Sex: Wistar (Jcl:Wistar)/Female (52/Group), Route: Oral, 200, 1000, 5000 ppm (0; 8.92; 44.1; 219 mg/kg/day) in diet for 2 yr, study duration 2 yr, 200, 1000, 5000 ppm (0; 8.92; 44.1; 219 mg/kg/day) in diet for 2 yr, study duration 2 yr) is reported as “inactive; negative”. The carcinogen call (Species: Rat, Strain/Sex: Wistar (Jcl:Wistar)/Male (52/Group), Route: Oral, 50, 100, 200, 1000 ppm (0; 1.84; 3.68; 7.32; 36.5 mg/kg/day) in diet for 2 yr, study duration 2 yr, 50, 100, 200, 1000 ppm (0; 1.84; 3.68; 7.32; 36.5 mg/kg/day) in diet for 2 yr, study duration 2 yr) was “inactive; negative”.
In the case of `Cc1c(C)c2c3c(ccc2c2ccccc12)[C@@H](O)[C@H](O)[C@@H]1O[C@H]31`, the carcinogen call (Species: MOUSE, Strain/Sex: ICR/FEMALE, Route: INTRAPERITONEAL, 8 NMOL IN 5 µL DMSO TO PUPS ON D 1/OF LIFE THEN 16 NMOL IN 10 µL ON D 8 AND 3 NMOL IN 20 µL D 15 (STUDY DURATION: 35, Tumor Site: Type of Lesion: LUNG: TUMOR) is reported as “active; positive” and the carcinogen call (Species: MOUSE, Strain/Sex: ICR/MALE, Route: INTRAPERITONEAL, 8 NMOL IN 5 µL DMSO TO PUPS ON D 1/OF LIFE THEN 16 NMOL IN 10 µL ON D 8 AND 3 NMOL IN 20 µL ON D 15 (STUDY DURATION:, Tumor Site: Type of Lesion: LUNG: TUMOR, LIVER: TUMOR) is reported as “active; positive”.
With `O=C1CCC(=O)O1` the carcinogen call (Species: MOUSE, Strain/Sex: B6C3F1/FEMALE, Route: GAVAGE, 75, 150 MG/KG IN CORN OIL 5 D/WK FOR 103 WK (STUDY DURATION: 104 WK), 75, 150 MG/KG IN CORN OIL 5 D/WK FOR 103 WK (STUDY DURATION: 104 WK)) was “inactive; negative”, the carcinogen call (Species: MOUSE, Strain/Sex: B6C3F1/MALE, Route: GAVAGE, 38, 75 MG/KG IN CORN OIL 5 D/WK FOR 103 WK (STUDY DURATION: 104 WK), 38, 75 MG/KG IN CORN OIL 5 D/WK FOR 103 WK (STUDY DURATION: 104 WK)) was “inactive; negative” and the carcinogen call (Species: RAT, Strain/Sex: F344/FEMALE, Route: GAVAGE, 50, 100 MG/KG IN CORN OIL 5 D/WK FOR 103 WK (STUDY DURATION: 104 WK), 50, 100 MG/KG IN CORN OIL 5 D/WK FOR 103 WK (STUDY DURATION: 104 WK)) was “inactive; negative”. For the same compound, the carcinogen call (Species: RAT, Strain/Sex: F344/MALE, Route: GAVAGE, 50, 100 MG/KG IN CORN OIL 5 D/WK FOR 103 WK (STUDY DURATION: 104 WK), 50, 100 MG/KG IN CORN OIL 5 D/WK FOR 103 WK (STUDY DURATION: 104 WK)) was “inactive; negative”.
